Here are results for six molecules from patent US12059478B2, “Gene therapy” (Ospedale San Raffaele S.r.l., priority 2016, dated 2024).

What is called IC50 is the concentration needed to halve the response being measured.

In series [1] the target is T1, ATR (Mus musculus, UniProt Q9JKK8).
T1 construct: endogenous in cells; host or cells: 3T3TopBP1-ER cells
Particulars: 3T3TopBP1-ER cells; cited from earlier work.

In series [2] the target is ATM kinase (Homo sapiens, UniProt Q13315). To be noted: cited from earlier work.
Series [3] deals with ATR (Homo sapiens, UniProt Q13535, F134E). To be noted: cited from earlier work.
In series [4] the test system is mPB CD34+ cells. Kind of series: Two-hit transduction protocol in mPB CD34+ cells with clinical-grade LV (apoptosis, CFC, cell counts, p21). The series is classed as cell-based, human. To be noted: two hits MOI 100 clinical-grade LV, 10 μM. The text has this: (§1) Human CD34+ hematopoietic stem and progenitor cells (HSPC) and CD4+ T cells were isolated through magnetic bead selection according to the manufacturer's instructions (Milteny) from umbilical cord blood (CB) collected upon informed consent from healthy volunteers according to the Institutional Ethical Committee approved protocol (TIGET01). Otherwise, CB and bone marrow (BM)-derived CD34+ were directly purchased from Lonza. Cells were purified and cultured as described in Petrillo et al. (Petrillo, C. et al. (2015) Molecular Therapy 23: 352-362). K562 and Hela cell lines were plated in complete Iscove's modified Dulbecco's medium (Euroclone). […] All cells were transduced at the indicated multiplicity of infection (MOI) as calculated by titration of vector stocks on 293T cells for Lentiviral and Retroviral vectors. Transductions with the AAV6 vectors were performed at an MOI of 10000 as calculated by titration of the vector preparation expressed in vector genome per mL (vg/mL). […]
CFC assay cells were performed as described in Petrillo et al and Gentner et al. (Petrillo, C. et al. (2015) Molecular Therapy 23: 352-362; Gentner, B. et al. (2010) Science Translational Medicine 2: 58ra84). After ten days, colonies were identified as erythroid or myeloid by morphological criteria, counted, plucked and pooled into sets of three to obtain DNA for quantification of vector content. […]

Series [5] relates to Interferon stimulated genes (IRF7, OAS1, ISG15) in human CB-CD34+. Kind of series: Interferon stimulated gene mRNA induction. Format: cell-based. Particulars: RV MOI 100, 48 h, Raltegravir and KU55933 10 μM, AZT 25 μM.
Excerpt: as §1, with “(Euroclone). HL-60 cells were grown and transduced in complete RPMI. HCT-116 cells were grown and transduced in complete Dulbecco's Modified Eagle Medium (DMEM). Murine Lin− cells were isolated through magnetic bead selection according to the manufacturer's instructions (Miltenyi) from bone marrow of euthanised C57/BL6 mice.” for “(Euroclone).”

In series [6] the test system is human CB-CD34+ cells. Kind of series: Cell proliferation dye assay. Format: cell-based. To be noted: LV MOI 100, 2 days.
Series [7] concerns human CD45+ cells in the peripheral blood. Kind of series: Transplantation of transduced human HSPC in NSG mice (engraftment). Particulars: transient inhibition during ex vivo transduction.
Series [8] relates to p53 signalling (p21 mRNA) in human CD34+ HSPC. Kind of series: p21 mRNA induction (p53 signalling) after vector transduction, Taqman. Format: cell-based. Particulars: for LV-induced p21 mRNA in presence of the inhibitor: CB-CD34+, LV MOI 100, inhibitor 10 μM, 48 h. The source says:
Human CD34+ hematopoietic stem and progenitor cells (HSPC) and CD4+ T cells were isolated through magnetic bead selection according to the manufacturer's instructions (Milteny) from umbilical cord blood (CB) collected upon informed consent from healthy volunteers according to the Institutional Ethical Committee approved protocol (TIGET01). Otherwise, CB and bone marrow (BM)-derived CD34+ were directly purchased from Lonza. Cells were purified and cultured as described in Petrillo et al. (Petrillo, C. et al. (2015) Molecular Therapy 23: 352-362). K562 and Hela cell lines were plated in complete Iscove's modified Dulbecco's medium (Euroclone). HL-60 cells were grown and transduced in complete RPMI. HCT-116 cells were grown and transduced in complete Dulbecco's Modified Eagle Medium (DMEM). Murine Lin− cells were isolated through magnetic bead selection according to the manufacturer's instructions (Miltenyi) from bone marrow of euthanised C57/BL6 mice. For the clinical standard double-hit transduction protocol, cells were washed 16 h after the first vector exposure, left to recover in cytokine-supplemented medium for 10 h and re-exposed to the second hit of vector for another 16 h before transplantation. All animal procedures were performed according to protocols approved by the Animal Care and Use Committee of the Ospedale San Raffaele (IACUC 611) and according to Italian law. All cells were transduced at the indicated multiplicity of infection (MOI) as calculated by titration of vector stocks on 293T cells for Lentiviral and Retroviral vectors. Transductions with the AAV6 vectors were performed at an MOI of 10000 as calculated by titration of the vector preparation expressed in vector genome per mL (vg/mL). All the transductions were performed at 1×10^6 cells/mL concentration. In the experiment with anti-retroviral inhibitors, the drugs were added together with the vector. Raltegravir and 3TC were used at 10 μM, and AZT at 25 μM. In the ATM inhibition experiment, single hit of the ATM inhibitor KU55933 (Selleck Chemicals) was added to the cells 2 hours before the transduction at 10 μM concentration. All cells were maintained in a 5% CO2 humidified atmosphere at 37° C.
Total RNA was extracted with the RNeasy Plus Micro kit or RNeasy Micro Kit (Qiagen) and Reverse transcription was performed using SuperScriptVILO cDNA Synthesis Kit (ThermoFisher Scientific) according to the manufacturers' instructions. Gene expression analysis was performed by Taqman probe (Thermo Fisher, Table 6) as described in Petrillo et al. (Petrillo, C. et al. (2015) Molecular Therapy 23: 352-362), human HPRT1 or murine Hprt were used to normalise the total quantity of human or mouse cDNA input respectively.

For series [9] the following is noted: DMSO, ethanol; cited from earlier work.
Series [10] has as its system human CD34+ HSPC. Kind of series: Annexin V apoptosis assay after transduction. The series is classed as cell-based.
Excerpt: as §1, with “(Euroclone). HL-60 cells were grown and transduced in complete RPMI. HCT-116 cells were grown and transduced in complete Dulbecco's Modified Eagle Medium (DMEM). Murine Lin− cells were isolated through magnetic bead selection according to the manufacturer's instructions (Miltenyi) from bone marrow of euthanised C57/BL6 mice. For the clinical standard double-hit transduction protocol, cells were washed 16 h after the first vector exposure, left to recover in cytokine-supplemented medium for 10 h and re-exposed to the second hit of vector for another 16 h before transplantation.” for “(Euroclone).”
Human HSPC fluorescence associated cell sorting was performed as described in Petrillo et al. (Petrillo, C. et al. (2015) Molecular Therapy 23: 352-362). All cytometric analyses were performed using the FACS […] instrument and LSRFortessa instruments (BD Biosciences, San Jose, CA) and analysed with the FACS Express software (De Novo Software, Glendale, CA). GFP expression in transduced cells was measured 5-7 days post-transduction. […]

In series [11] the test system is human CB-CD34+ cells. Description: Transduction efficiency (GFP expression, integrated vector copy number). Format: cell-based. Particulars: LV MOI 100, 10 μM, 14 days.
Excerpt: as §1
Human HSPC fluorescence associated cell sorting was performed as described in Petrillo et al. (Petrillo, C. et al. (2015) Molecular Therapy 23: 352-362). All cytometric analyses were performed using the FACS […] instrument and LSRFortessa instruments (BD Biosciences, San Jose, CA) and analysed with the FACS Express software (De Novo Software, Glendale, CA). […]

[12] abbreviates: CB-CD34+ exposed to AAV-6 MOI 10000, 10 μM.

Sequence of ATR (Homo sapiens, UniProt Q13535, F134E) (Q13535 whole entry F134E): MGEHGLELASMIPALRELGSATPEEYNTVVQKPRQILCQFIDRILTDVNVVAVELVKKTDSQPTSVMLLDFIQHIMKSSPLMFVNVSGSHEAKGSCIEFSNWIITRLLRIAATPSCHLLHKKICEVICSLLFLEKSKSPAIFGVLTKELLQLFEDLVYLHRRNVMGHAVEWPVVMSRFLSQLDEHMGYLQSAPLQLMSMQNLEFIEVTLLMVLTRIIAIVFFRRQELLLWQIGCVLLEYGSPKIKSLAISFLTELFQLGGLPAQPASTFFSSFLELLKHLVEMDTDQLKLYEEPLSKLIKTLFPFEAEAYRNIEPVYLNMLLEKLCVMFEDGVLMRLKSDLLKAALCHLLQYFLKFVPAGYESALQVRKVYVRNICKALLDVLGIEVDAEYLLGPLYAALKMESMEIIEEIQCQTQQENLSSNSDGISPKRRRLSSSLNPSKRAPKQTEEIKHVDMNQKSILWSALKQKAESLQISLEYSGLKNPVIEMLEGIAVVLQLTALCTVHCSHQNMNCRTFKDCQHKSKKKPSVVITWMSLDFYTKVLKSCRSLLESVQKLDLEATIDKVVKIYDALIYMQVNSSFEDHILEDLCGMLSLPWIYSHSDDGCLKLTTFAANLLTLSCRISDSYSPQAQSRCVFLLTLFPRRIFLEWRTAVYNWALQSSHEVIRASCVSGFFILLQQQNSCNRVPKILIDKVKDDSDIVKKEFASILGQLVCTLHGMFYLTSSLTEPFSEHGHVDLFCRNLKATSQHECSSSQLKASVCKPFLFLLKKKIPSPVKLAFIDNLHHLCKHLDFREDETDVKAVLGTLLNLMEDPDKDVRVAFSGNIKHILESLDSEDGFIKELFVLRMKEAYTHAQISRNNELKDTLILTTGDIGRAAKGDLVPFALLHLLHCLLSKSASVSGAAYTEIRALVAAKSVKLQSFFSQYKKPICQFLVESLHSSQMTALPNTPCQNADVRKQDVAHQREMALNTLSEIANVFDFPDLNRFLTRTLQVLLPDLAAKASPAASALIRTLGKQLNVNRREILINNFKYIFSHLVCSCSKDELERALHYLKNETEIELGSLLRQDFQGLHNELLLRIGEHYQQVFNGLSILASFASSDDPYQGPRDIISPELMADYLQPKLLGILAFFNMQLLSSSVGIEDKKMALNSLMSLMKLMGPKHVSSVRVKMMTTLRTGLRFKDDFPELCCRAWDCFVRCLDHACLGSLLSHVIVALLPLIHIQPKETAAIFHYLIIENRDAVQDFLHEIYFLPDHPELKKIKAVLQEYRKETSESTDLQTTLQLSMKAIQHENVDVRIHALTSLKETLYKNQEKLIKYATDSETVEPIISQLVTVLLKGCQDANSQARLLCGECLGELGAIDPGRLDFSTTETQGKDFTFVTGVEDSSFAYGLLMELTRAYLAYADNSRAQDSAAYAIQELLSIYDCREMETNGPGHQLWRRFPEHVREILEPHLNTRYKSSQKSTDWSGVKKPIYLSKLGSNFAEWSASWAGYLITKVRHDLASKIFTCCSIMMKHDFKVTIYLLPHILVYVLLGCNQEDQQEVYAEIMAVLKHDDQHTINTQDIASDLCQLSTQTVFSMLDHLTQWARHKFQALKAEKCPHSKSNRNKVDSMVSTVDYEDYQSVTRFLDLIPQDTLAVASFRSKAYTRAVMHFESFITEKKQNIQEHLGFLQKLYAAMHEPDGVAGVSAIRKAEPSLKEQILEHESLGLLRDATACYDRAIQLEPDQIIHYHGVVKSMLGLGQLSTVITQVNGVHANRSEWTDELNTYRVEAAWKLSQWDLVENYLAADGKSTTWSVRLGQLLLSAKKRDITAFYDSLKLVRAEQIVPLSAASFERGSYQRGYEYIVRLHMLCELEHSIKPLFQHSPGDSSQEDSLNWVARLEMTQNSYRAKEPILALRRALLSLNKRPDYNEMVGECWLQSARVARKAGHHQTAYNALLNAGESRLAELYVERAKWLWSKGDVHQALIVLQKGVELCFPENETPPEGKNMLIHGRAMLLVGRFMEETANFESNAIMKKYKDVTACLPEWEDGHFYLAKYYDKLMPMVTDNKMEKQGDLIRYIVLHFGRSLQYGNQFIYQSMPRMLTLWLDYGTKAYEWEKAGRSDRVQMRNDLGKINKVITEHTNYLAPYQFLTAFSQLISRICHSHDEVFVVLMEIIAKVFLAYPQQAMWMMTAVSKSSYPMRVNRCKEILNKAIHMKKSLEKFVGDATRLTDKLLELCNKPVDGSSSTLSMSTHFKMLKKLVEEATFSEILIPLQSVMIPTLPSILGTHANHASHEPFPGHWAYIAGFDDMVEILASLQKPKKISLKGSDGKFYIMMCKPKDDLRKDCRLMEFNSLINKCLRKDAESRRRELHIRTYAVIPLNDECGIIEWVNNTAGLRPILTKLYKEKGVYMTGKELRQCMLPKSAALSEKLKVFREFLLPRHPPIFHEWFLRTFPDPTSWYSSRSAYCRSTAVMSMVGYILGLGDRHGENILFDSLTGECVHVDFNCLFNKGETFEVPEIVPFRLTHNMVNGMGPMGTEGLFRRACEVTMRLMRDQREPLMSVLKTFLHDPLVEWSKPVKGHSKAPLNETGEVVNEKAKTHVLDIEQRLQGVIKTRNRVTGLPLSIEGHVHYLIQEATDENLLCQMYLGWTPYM
Sequence of ATR (Homo sapiens, UniProt Q13535, F134E) (Q8WXE1 whole entry partner): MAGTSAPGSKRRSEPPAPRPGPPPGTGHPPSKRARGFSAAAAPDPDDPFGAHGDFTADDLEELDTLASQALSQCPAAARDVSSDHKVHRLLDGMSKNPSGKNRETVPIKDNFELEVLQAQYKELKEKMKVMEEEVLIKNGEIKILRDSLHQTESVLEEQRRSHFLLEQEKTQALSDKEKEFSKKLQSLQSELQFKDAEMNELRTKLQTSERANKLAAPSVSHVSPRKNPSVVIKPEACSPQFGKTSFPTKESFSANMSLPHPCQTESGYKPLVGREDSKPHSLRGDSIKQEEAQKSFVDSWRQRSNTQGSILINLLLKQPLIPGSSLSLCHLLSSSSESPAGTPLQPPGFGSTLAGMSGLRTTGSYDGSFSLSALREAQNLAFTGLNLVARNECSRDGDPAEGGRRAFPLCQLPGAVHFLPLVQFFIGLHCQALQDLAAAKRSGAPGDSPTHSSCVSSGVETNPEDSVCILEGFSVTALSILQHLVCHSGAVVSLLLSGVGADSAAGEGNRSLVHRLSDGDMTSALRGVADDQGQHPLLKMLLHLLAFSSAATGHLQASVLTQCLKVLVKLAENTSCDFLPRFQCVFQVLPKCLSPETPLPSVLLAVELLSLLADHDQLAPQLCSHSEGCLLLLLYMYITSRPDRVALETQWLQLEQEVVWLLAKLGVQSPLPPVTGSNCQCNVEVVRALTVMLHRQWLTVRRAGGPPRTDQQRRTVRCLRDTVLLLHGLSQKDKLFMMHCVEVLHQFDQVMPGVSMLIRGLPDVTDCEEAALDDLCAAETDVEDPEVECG

For `Cn1c(=O)n(-c2ccc(C(C)(C)C#N)cc2)c2c3cc(-c4cnc5ccccc5c4)ccc3ncc21` [BEZ235, Dactolisib], the IC50 in series [1] is approximately 21 nM.

In the case of `O=C(NC(NC(=S)Nc1ccc(F)c([N+](=O)[O-])c1)C(Cl)(Cl)Cl)C(c1ccccc1)c1ccccc1` (centres unmarked) [CGK 733], the IC50 in series [2] and in [3] was approximately 200 nM in each case.

Turning to `COc1cc2ncnc(-n3nc(-c4ccccn4)nc3N)c2cc1OC` [CP-466722], the “ATM kinase inhibition” value in [2] was “potent and reversible ATM kinase inhibitor”. Also, the “Effect on ATR” value in series [3] was “does not affect ATR”.

`O=c1cc(-c2cccc3c2Sc2ccccc2S3)oc(N2CCOCC2)c1` [KU-55933]: the “Impact of ATM inhibition on apoptosis, colony output, cell counts in culture and p21 induction” value in [4] was “Positive impact”. For the same molecule, the “γRV-mediated ISG induction in presence of the inhibitor” value in series [5] is on record as “no impact”. Besides, the “Proliferation delay of LV-transduced HSPC under ATM inhibition” value in series [6] is “did not affect”. For the same molecule, the “Improvement of LV-exposed HSPC engraftment” value in series [7] is listed as “around 25%”. Further, the “AAV-6-induced p21 mRNA under ATM inhibition” value in [8] (setting [12]) is on record as “rescued”. For the same molecule, the “LV-induced p21 mRNA in presence of the inhibitor” value in [8] is “significantly reduced”. In addition, in series [9], the Solubility entry is “soluble in DMSO and ethanol”. Also, in series [10] (setting [12]), the “AAV-6-induced apoptosis under ATM inhibition” value is given as “rescued”. Also, the “LV-induced apoptosis in presence of the inhibitor” value in series [10] (CB-CD34+, LV MOI 100, inhibitor 10 μM, 48 h) was “partially abrogated”.

As to `Cc1nnc(C(=O)NC(C)(C)c2nc(C(=O)NCc3ccc(F)cc3)c(O)c(=O)n2C)o1` [Raltegravir], the “γRV-mediated ISG induction in presence of the inhibitor” value in series [5] was “occurred also”. The “LV-induced p21 mRNA in presence of the inhibitor” value in [8] is “still occurred”. Besides, in series [11], the “LV integration (VCN) in presence of integrase inhibitor” value is recorded as “efficient block”.

B1: GSE56: dominant negative form of p53 (SEQ ID NO: 6), over-expressed from a LV (protein, listed as Homo sapiens)
chain: CPGRDRRTEEENFRKKEEHCPELPPGSAKRALPTSTSSSPQQKKKPLDGEYFTLKIRGRERFEMFRELNEALELKDARAAEESGDSRAHSSYPK
For B1, the “p21 induction upon a second round of LV or AAV6 transduction” value in [8] (GSE56-expressing CB-CD34+ vs control transduced) was “completely prevented”. Besides, the “p53 signalling upon DNA damage by Captothecin (CPT)” value in series [8] (GSE56-overexpressing HSPC) is listed as “efficiently block p53 signalling”. The “Apoptosis upon a second round of transduction” value in [10] (GSE56-expressing HSPC, 48 h after second hit) was “reduced apoptosis”.
